Laboratory results as given in patent US20210038587A1, “METHODS AND COMPOSITIONS FOR TREATING NON-ERK MAPK PATHWAY INHIBITOR-RESISTANT CANCERS” (BIOMED VALLEY DISCOVERIES, INC., priority 2013, published 2021).
Marks after values point to notes of the source that are not given here.

Assays:
[1] = Phase I dose-escalation study: safety, DLT, MTD, RP2D; conditions: in vivo
Excerpt: Patients aged ≥18 years were eligible for participation if they had noncurable, histologically confirmed metastatic or advanced stage malignant tumors; an ECOG performance status of 0 or 1; adequate renal, hepatic, bone marrow, and cardiac function; and a life expectancy ≥3 months. Patients may have received up to 2 prior lines of chemotherapy for their metastatic disease. Exclusion criteria were known uncontrolled brain metastases; gastrointestinal conditions which could impair absorption of study medication; history or current evidence/risk of retinal vein occlusion or central serous retinopathy; and concurrent therapy with drugs known to be strong inhibitors of CYP1A2, CYP2D6, and CYP3A4 or strong inducers of CYP3A4. All participants provided informed consent prior to initiation of any study procedures.
The present invention presents data from an open-label, multicenter phase I study to assess the safety, pharmacokinetics, and pharmacodynamics of escalating doses of BVD-523 in patients with advanced malignancies.
Patients received BID oral doses until disease progression, unacceptable toxicity, or a clinical observation satisfying another withdrawal criterion. Dose escalations occurred in up to 100% increments in single-patient cohorts until 1 patient experienced a ≥Grade 2 toxicity (excluding alopecia or diarrhea). Cohorts were then expanded to at least 3 patients each and subsequent dose-escalation increments were reduced from up to 100% to a maximum of 50%. When at least 1 patient in a 3-patient cohort experienced a DLT, up to 3 additional patients were treated at this dose level. When more than 1 DLT occurred in ≤6 patients, this dose level was defined as the nontolerated dose and dose escalation was stopped. Intrapatient dose escalation was allowed, provided the patients receiving the highest current dose had been observed for at least 3 weeks and dose-limiting side effects were reported in fewer than 2 of 6 patients assigned to a given dose. Patients experiencing DLTs or unacceptable toxicity had their treatment interrupted until the toxicity returned to ≤Grade 1.
The RP2D could be as high as the MTD and was determined in discussion with the clinical investigators, the medical monitor, and the sponsor. Observations related to pharmacokinetics, pharmacodynamics, and any cumulative toxicity observed after multiple cycles were included in the rationale supporting the RP2D.
The severity of AEs were graded according to the National Cancer Institute Common Terminology Criteria for Adverse Events, Grading Scale, version 4.
Safety evaluations were conducted at baseline, on Days 8, 15, 22, 29, 36, and 43, and, in patients who continued treatment, every 3 weeks or if clinically indicated thereafter. Each evaluation included a physical examination and clinical laboratory studies. Electrocardiograms were repeated if clinically significant and at the discretion of the investigator. The investigators made judgments regarding whether or not AEs were related to study drug and followed up until resolution or stabilization, or the AE was judged to be no longer clinically significant.

ROCKII = ROCKII (Homo sapiens, UniProt O75116); test: Kinase counter-screen, Ki; type: biochemical; conditions: apparent Ki
Chain of ROCKII (O75116 whole entry, species assumed): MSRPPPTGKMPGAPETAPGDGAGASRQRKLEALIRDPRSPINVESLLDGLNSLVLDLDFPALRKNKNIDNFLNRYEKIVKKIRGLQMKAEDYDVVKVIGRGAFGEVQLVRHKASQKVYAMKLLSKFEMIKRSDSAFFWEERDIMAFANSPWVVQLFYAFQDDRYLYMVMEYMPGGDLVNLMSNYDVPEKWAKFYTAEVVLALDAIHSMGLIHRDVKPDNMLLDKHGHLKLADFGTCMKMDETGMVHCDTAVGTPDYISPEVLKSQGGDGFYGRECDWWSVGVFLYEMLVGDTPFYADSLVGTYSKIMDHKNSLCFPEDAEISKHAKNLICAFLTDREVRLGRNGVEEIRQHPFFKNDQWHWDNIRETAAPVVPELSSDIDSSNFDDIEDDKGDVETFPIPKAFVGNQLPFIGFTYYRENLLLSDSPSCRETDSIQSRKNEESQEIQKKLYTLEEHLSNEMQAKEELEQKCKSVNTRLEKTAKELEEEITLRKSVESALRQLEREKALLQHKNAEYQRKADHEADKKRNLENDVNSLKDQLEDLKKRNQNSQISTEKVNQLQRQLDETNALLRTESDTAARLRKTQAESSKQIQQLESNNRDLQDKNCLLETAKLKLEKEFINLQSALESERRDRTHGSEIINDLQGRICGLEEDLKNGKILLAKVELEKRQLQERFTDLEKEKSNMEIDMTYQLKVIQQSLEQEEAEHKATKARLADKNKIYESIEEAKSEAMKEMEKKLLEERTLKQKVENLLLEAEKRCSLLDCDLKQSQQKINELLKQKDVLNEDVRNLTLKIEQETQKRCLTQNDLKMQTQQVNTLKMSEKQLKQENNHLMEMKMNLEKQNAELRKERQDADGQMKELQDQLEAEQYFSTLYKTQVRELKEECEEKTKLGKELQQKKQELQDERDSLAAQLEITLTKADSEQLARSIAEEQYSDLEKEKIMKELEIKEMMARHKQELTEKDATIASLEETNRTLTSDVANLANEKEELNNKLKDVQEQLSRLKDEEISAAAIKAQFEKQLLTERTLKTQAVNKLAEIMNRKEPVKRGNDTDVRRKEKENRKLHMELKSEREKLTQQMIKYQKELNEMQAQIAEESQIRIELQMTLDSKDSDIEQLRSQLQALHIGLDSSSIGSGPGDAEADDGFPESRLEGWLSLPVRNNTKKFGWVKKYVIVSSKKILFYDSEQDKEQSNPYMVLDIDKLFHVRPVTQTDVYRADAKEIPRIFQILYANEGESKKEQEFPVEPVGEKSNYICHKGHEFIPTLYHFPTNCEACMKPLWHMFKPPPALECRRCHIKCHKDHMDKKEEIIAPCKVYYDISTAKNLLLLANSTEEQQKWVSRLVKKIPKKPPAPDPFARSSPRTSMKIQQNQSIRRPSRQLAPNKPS
Excerpt: (§1) The ATP concentrations were approximately equal to the Km in all assays.

A375 xenografts = test: Antitumor activity in A375 xenografts, monotherapy; type: in vivo, mice; conditions: 14 days
Method: For measurement of antitumor activity in A375 xenografts, xenografts were initiated with A375 cells maintained by serial subcutaneous transplantation in female athymic nude mice. Each test mouse received an A375 tumor fragment (1 mm^3) implanted subcutaneously in the right flank. Once tumors reached target size (80-120 mm^3), animals were randomized into treatment and control groups, and drug treatment was initiated.
Oral temozolomide was administered as a positive reference compound at 75 or 175 mg/kg once daily (QD) for a total of five treatments (QD×5).

CDK2/cyclinA = CDK2/cyclinA (Homo sapiens, UniProt P24941); test: Kinase counter-screen, Ki; type: biochemical
Excerpt: as §1

[2] = system: patient-derived xenograft (AT052C); test: Patient-derived xenograft from vemurafenib-refractory BRAFV600E melanoma; type: in vivo, mice; conditions: 100 mg/kg BID, 28 days
Excerpt: Tumor fragments were harvested from host animals and implanted into immune-deficient mice.

SMILES: CC(C)Nc1cc(-c2c[nH]c(C(=O)N[C@H](CO)c3cccc(Cl)c3)c2)c(Cl)cn1 [BVD-523]
- Anemia, Any grade ([1]; human): 5 (19) n (%)
- Anemia, Grade 1 or 2 ([1]; human): 3 (11) n (%)
- Anemia, Grade 3 ([1]; human): 2^ (7) n (%)
- Anorexia, Any grade ([1]; human): 6 (22) n (%)
- Anorexia, Grade 1 or 2 ([1]; human): 6 (22) n (%)
- Anorexia, Grade 3 ([1]; human): 0 n (%)
- Blurry/dimmed vision, Any grade ([1]; human): 3 (11) n (%)
- Blurry/dimmed vision, Grade 1 or 2 ([1]; human): 3 (11) n (%)
- Blurry/dimmed vision, Grade 3 ([1]; human): 0 n (%)
- Constipation, Any grade ([1]; human): 3 (11) n (%)
- Constipation, Grade 1 or 2 ([1]; human): 3 (11) n (%)
- Constipation, Grade 3 ([1]; human): 0 n (%)
- Dehydration, Any grade ([1]; human): 5 (19) n (%)
- Dehydration, Grade 1 or 2 ([1]; human): 3 (11) n (%)
- Dehydration, Grade 3 ([1]; human): 2^ (7) n (%)
- Diarrhea, Any grade ([1]; human): 16 (59) n (%)
- Diarrhea, Grade 1 or 2 ([1]; human): 12 (44) n (%)
- Diarrhea, Grade 3 ([1]; human): 4^ (15) n (%)
- Fatigue, Any grade ([1]; human): 17 (63) n (%)
- Fatigue, Grade 1 or 2 ([1]; human): 16 (59) n (%)
- Fatigue, Grade 3 ([1]; human): 1^ (4) n (%)
- Fever, Any grade ([1]; human): 3 (11) n (%)
- Fever, Grade 1 or 2 ([1]; human): 3 (11) n (%)
- Fever, Grade 3 ([1]; human): 0 n (%)
- Grade 3 treatment-related diarrhea ([1]; human): 15%
- Grade 3 treatment-related increased liver function tests ([1]; human): 11%
- Increased LFTs (ALT and AST), Any grade ([1]; human): 4 (14) n (%)
- Increased LFTs (ALT and AST), Grade 1 or 2 ([1]; human): 1 (4) n (%)
- Increased LFTs (ALT and AST), Grade 3 ([1]; human): 3^ (11) n (%)
- Increased creatinine, Any grade ([1]; human): 5 (19) n (%)
- Increased creatinine, Grade 1 or 2 ([1]; human): 4 (15) n (%)
- Increased creatinine, Grade 3 ([1]; human): 1^ (4) n (%)
- MTD ([1]; human): 600 mg BID
- Nausea, Any grade ([1]; human): 14 (52) n (%)
- Nausea, Grade 1 or 2 ([1]; human): 14 (52) n (%)
- Nausea, Grade 3 ([1]; human): 0 n (%)
- Peripheral edema, Any grade ([1]; human): 4 (15) n (%)
- Peripheral edema, Grade 1 or 2 ([1]; human): 4 (15) n (%)
- Peripheral edema, Grade 3 ([1]; human): 0 n (%)
- Pruritus, Any grade ([1]; human): 6 (22) n (%)
- Pruritus, Grade 1 or 2 ([1]; human): 6 (22) n (%)
- Pruritus, Grade 3 ([1]; human): 0 n (%)
- RP2D ([1]; human): 600 mg BID
- Rash, Any grade ([1]; human): 20 (74) n (%)
- Rash, Grade 1 or 2 ([1]; human): 18 (67) n (%)
- Rash, Grade 3 ([1]; human): 2^b (7) n (%)
- Vomiting, Any grade ([1]; human): 8 (30) n (%)
- Vomiting, Grade 1 or 2 ([1]; human): 7 (26) n (%)
- Vomiting, Grade 3 ([1]; human): 1^ (4) n (%)
- dose reductions resulting from AEs ([1]; human): 3 patients
- patients with Grade 4 or 5 AEs possibly or definitely related ([1]; human): ^aNo patients experienced Grade 4 or 5 AEs that were possibly or definitely related to BVD-523 treatment.
- patients with treatment-related AEs of any grade ([1]; human): 26 of 27
- patients with treatment-related Grade 3 events ([1]; human): 13 of 27
- related central serous retinopathy events ([1]; human): ^cOne Grade 1 event of related central serous retinopathy.
- total serious AEs (SAEs) ([1]; human): 28
- treatment-related diarrhea ([1]; human): 52%
- treatment-related fatigue ([1]; human): 59%
- treatment-related nausea ([1]; human): 52%
- treatment-related rash (predominately acneiform) ([1]; human): 70%
- patients with serious AEs (SAEs) [1]: Fourteen
- Ki (ROCKII): 270 nM
- tumor growth inhibition (TGI) (A375 xenografts; 50 mg/kg BID p.o.): 71%
- tumor growth inhibition (TGI) (A375 xenografts; 100 mg/kg BID p.o.): 99%
- Ki (CDK2/cyclinA): 360 nM
- TGI [2]: 78%
